Data taken from paper PMC8836073, “Activatable Peptides for Rapid and Simple Visualization of Protease Activity Secreted in Living Cells” (International Journal of Molecular Sciences, 2022).

Assays:
[1] = system: HT-1080 cells (MMP2-positive); assay: Live cell confocal imaging of peptide uptake in HT-1080 cells; format: cell-based, Human; settings: for intracellular fluorescence (confocal images, FITC channel): HT-1080, peptide final 10 μM in serum-free CM, 2 h after treatment
Description: (§1) For live cell imaging, HT-1080 or HT-29 cells were cultured in Lab-Tek II chambered coverglass (Thermo Fisher Scientific) containers in RPMI-1640 media containing 10% FBS and 1× P/S at 37 °C. When the cells were 80% confluent, the culture medium was rinsed and changed to a fresh serum-free medium, followed by the addition of peptide probes at a final concentration of 10 μM. For organelle images, nuclei and lysosomes (or late endosomes) were stained with NucBlue (1 drop) and Lysotracker Red (50 nM) in serum-free media, respectively, and incubated in the dark for 10 min. After washing of the cells and removal of the chamber, cells adhering to the coverglass were subjected to bright-field or fluorescent images using a confocal microscope (Nikon C2si+, Japan). The excitation/emission wavelengths of NucBlue, FITC, and Lysotracker Red were 352/454 nm, 488/525 nm, and 577/590 nm, respectively. Typically, images were collected using a pixel dwell time of 10.3 μs on a 512 × 512 pixel image with 1 mW light power at the objective through a pinhole (60 μm) to reach the PMT. The frame rate was rather slow; the frame rate was about 0.255 FPS (frame per second) for a 512 × 512 frame (i.e., 1 frame per 3.9 s). To gain time-lapse images for FITC in living cells, one video file was constructed with images taken every 20 s for 30 min. Imaging analysis was performed using the NIS-Elements microscope imaging software (Ver 2.0).

[2] = system: HeLa cells; assay: Peptide uptake in HeLa cells; format: cell-based; settings: unlike HT-1080 cells
[3] = biological target: T1, active MMP2 (Homo sapiens, UniProt P08253); assay: Fluorescent gel electrophoresis of peptide cleavage by active MMP2; format: biochemical; settings: peptide final 50 μM, active MMP2 final 0.1 μg in 40 μL; 20 mM Tris-HCl, 5 mM CaCl2, 100 mM NaCl, pH 7.6; 120 min, 37 °C; 0.8% agarose gel, FITC fluorescence
T1 construct: active MMP2 (No. PF023), and active MMP9 (No. PF024) were purchased from Merck Millipore; purchased Merck Millipore PF023
T1 sequence (P08253 110-660): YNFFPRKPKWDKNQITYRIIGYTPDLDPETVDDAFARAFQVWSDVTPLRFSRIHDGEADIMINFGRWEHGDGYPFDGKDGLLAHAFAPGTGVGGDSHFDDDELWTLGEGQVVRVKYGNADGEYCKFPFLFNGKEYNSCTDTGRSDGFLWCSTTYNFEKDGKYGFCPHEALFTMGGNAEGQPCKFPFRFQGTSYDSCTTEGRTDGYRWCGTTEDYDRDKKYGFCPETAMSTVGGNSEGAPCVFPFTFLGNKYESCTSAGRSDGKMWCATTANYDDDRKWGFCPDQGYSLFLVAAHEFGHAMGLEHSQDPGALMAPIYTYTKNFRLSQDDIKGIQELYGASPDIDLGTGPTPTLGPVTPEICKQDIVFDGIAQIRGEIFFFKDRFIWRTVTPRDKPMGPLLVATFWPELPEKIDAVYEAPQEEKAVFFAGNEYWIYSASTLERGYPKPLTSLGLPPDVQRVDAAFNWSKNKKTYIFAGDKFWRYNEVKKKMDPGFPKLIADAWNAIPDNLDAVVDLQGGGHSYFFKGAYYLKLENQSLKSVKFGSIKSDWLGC
Description: (§2) Fluorescent gel electrophoresis was performed on 0.8% agarose gel at 50 V for 60 min. The agarose gel was cast and run using 0.5 × TB buffer. For the protease assay, Pep1 or Pep2 (1 μL at 2 mM, final 50 μM) was mixed with active MMP2 or active MMP9 (1 μL, final 0.1 μg) at a final volume of 40 μL in standard reaction buffer (20 mM Tris-HCl containing 5 mM CaCl2 and 100 mM NaCl, pH 7.6). The reactants were incubated in a tube for 120 min at 37 °C to induce the enzyme reaction, and 30 μL of the solution were loaded onto the agarose gel. As a control, a solution of Pep1 or Pep 2 (1 μL at 2 mM) without enzymes was resuspended in a reaction buffer (for a total of 40 μL), and the aliquot (30 μL) was used in gel electrophoresis. The fluorescent image of the agarose was captured using a home-built transilluminator equipped with a blue light-emitting diode lamp. The original image underwent a pseudo-color imaging process using an image-editing function in Microsoft PowerPoint 365.

[4] = biological target: T2, active MMP9 (Homo sapiens, UniProt P14780); assay: Fluorescent gel electrophoresis of peptide cleavage by active MMP9; format: biochemical; settings: peptide final 50 μM, active MMP9 final 0.1 μg in 40 μL; 20 mM Tris-HCl, 5 mM CaCl2, 100 mM NaCl, pH 7.6; 120 min, 37 °C; 0.8% agarose gel, FITC fluorescence
T2 construct: active MMP2 (No. PF023), and active MMP9 (No. PF024) were purchased from Merck Millipore; purchased Merck Millipore PF024
Description: as §2

[5] = system: HT-29 cells (MMP2-negative); assay: Live cell confocal imaging of peptide uptake in HT-29 cells; format: cell-based, Human
Description: as §1, with “Imaging analysis was performed using the NIS-Elements microscope imaging software (Ver 2.0).” left out

[6] = biological target: T3, MMP2 secreted by HT-1080 cells (Homo sapiens, UniProt P08253); assay: Pep1 intracellular fluorescence in HT-1080 cells with MMP2 inhibitor; format: cell-based; settings: HT-1080, Pep1 final 10 μM, MMP2 inhibitor (Figure S3)
T3 construct: endogenous in cells; host or cells: HT-1080 human fibrosarcoma cells
T3 sequence (P08253 110-660): T1 sequence (P08253 110-660)
Description: as §1, with “Imaging analysis was performed using the NIS-Elements microscope imaging software (Ver 2.0).” left out

[7] = FITC fluorescence; no reference given; cited from earlier work
Description: Figure 4A,B were nearly identical to the images obtained at 2 h in Figure 3A,B, respectively. […] There was no signi ...

T2 sequence (P14780 107-707 limits assumed): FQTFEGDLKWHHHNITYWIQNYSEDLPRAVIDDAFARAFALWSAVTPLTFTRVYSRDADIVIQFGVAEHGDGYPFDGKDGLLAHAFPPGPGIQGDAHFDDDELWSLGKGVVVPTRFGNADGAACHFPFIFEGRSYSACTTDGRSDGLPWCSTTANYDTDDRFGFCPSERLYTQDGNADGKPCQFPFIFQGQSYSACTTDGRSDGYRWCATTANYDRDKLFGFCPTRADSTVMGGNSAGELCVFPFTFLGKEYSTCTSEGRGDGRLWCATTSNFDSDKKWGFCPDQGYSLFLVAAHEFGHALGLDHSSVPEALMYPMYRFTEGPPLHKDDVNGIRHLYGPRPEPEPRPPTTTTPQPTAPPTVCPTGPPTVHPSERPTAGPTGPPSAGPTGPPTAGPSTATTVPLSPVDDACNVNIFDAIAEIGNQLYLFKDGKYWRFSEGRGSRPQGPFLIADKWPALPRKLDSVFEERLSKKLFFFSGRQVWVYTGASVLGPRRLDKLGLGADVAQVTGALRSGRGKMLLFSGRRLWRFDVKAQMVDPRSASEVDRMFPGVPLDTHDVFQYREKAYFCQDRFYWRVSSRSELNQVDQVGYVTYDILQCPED

Row | Molecule | intracellular fluorescence (confocal images, FITC channel) ([1]; 37 °C) | uptake by HeLa cells [2] | cleavage by active MMP2 (fluorescent band shift on agarose gel) [3] | cleavage by active MMP9 (fluorescent band shift on agarose gel) [4] | also measured
1 | EEEEGGRRRRK-FITC [Pep2] | No significant fluorescence images | – | did not show any fluorescent band shifts | did not show any fluorescent band shifts | –
2 | EEEEGGIPVSLRSGGGRRRRK-FITC [Pep1] | strong fluorescence images | – | strong fluorescent band shift | less effective than that by MMP2 | cellular uptake ([1]; HT-1080 cells, 30 min, percentage of FITC-stained cells over total cells): 40~60%; time-lapse signal intensity (0 to 30 min) ([1]; living HT-1080, peptide final 10 μM, 37 °C, compared to Pep2, triplicate experiments): increased even after just 5 min; intracellular fluorescence (confocal images, FITC channel) ([5]; HT-29, peptide final 10 μM in serum-free CM, 2 h after treatment, 37 °C): No significant fluorescence images; time-lapse fluorescence (30 min) ([5]; living HT-29, Pep1 final 10 μM, 30 min): no significant increase
3 | O=C(O)[C@@H](Cc1ccccc1)NS(=O)(=O)c1ccc(-c2ccccc2)cc1 [MMP2 inhibitor, (2R)-2-[(4-biphenylylsulfonyl)amino]-3-phenylpropionic acid] | – | – | – | – | effect on intracellular fluorescence intensity of Pep1 [6]: significantly reduced
4 | fluorescein isothiocyanate [FITC] | – | – | – | – | pKa [7]: 6.5

Now from value to molecule, other results behind:

Row | intracellular fluorescence (confocal images, FITC channel) ([1]; 37 °C) | uptake by HeLa cells [2] | cleavage by active MMP2 (fluorescent band shift on agarose gel) [3] | cleavage by active MMP9 (fluorescent band shift on agarose gel) [4] | Molecule | also measured
5 | strong fluorescence images | did not take up | – | – | GGIPVSLRSGGGRRRRK-FITC [Pep3, FITC-labeled positive control peptide without E4] | –
6 | – | did not take up | – | – | LRSGGG-R4-FITC [cleaved Pep1, fluorescent fragment of Pep1 after MMP2 cleavage] | –
